Experimental data taken from the NIST ThermoML archive (doi:10.1021/je9003806).

Assay: excess molar enthalpy (molar enthalpy of mixing); xn = mol fraction of the nth substance listed
Conditions: 101.3 kPa, Liquid, Flow calorimetry

CCOC(=O)CC(=O)OCC [diethyl 1,3-propanedioate] + CCCO
excess molar enthalpy [kJ/mol]
Conditions | 288.2 K | 298.2 K | 313.2 K | 328.2 K
x1 = 0.0499 | 0.487 | 0.534 | 0.578 | 0.597
x1 = 0.1004 | 0.866 | 0.941 | 1.04 | 1.11
x1 = 0.1588 | – | 1.31 | 1.44 | 1.55
x1 = 0.209 | – | 1.57 | 1.74 | 1.87
x1 = 0.2513 | 1.59 | 1.75 | 1.92 | 2.05
x1 = 0.3 | 1.74 | 1.91 | 2.09 | 2.24
x1 = 0.3491 | 1.85 | 2.03 | 2.23 | 2.39
x1 = 0.3982 | 1.94 | 2.11 | 2.32 | 2.48
x1 = 0.451 | 1.98 | 2.16 | 2.36 | 2.52
x1 = 0.499 | 2 | 2.17 | 2.37 | 2.52
x1 = 0.5503 | 1.98 | 2.14 | 2.34 | 2.48
x1 = 0.6002 | 1.93 | 2.08 | 2.26 | 2.37
x1 = 0.6479 | 1.86 | 1.99 | 2.14 | 2.25
x1 = 0.6986 | 1.75 | 1.87 | 1.97 | 2.06
x1 = 0.7525 | 1.57 | 1.67 | 1.75 | 1.82
x1 = 0.797 | 1.4 | 1.47 | 1.51 | 1.57
x1 = 0.8506 | 1.13 | 1.17 | 1.19 | 1.23
x1 = 0.9003 | 0.821 | 0.826 | 0.856 | 0.854
x1 = 0.9527 | 0.438 | 0.435 | 0.432 | 0.418

CCOC(=O)CC(=O)OCC [diethyl 1,3-propanedioate] + CO
excess molar enthalpy [kJ/mol]
Conditions | 288.2 K | 298.2 K | 313.2 K | 328.2 K
x1 = 0.05 | 0.276 | 0.307 | 0.339 | 0.365
x1 = 0.0996 | 0.513 | 0.555 | 0.61 | 0.673
x1 = 0.1496 | 0.698 | 0.763 | 0.851 | 0.926
x1 = 0.2011 | 0.858 | 0.937 | 1.04 | 1.15
x1 = 0.2515 | 0.989 | 1.08 | 1.2 | 1.32
x1 = 0.3009 | 1.09 | 1.2 | 1.33 | 1.46
x1 = 0.3506 | 1.18 | 1.29 | 1.43 | 1.57
x1 = 0.3988 | 1.25 | 1.36 | 1.51 | 1.65
x1 = 0.4486 | 1.29 | 1.4 | 1.56 | 1.7
x1 = 0.4993 | 1.31 | 1.43 | 1.58 | 1.71
x1 = 0.55 | 1.32 | 1.44 | 1.57 | 1.71
x1 = 0.5995 | 1.28 | 1.41 | 1.54 | 1.66
x1 = 0.6464 | 1.26 | 1.35 | 1.49 | 1.59
x1 = 0.698 | 1.18 | 1.27 | 1.39 | 1.48
x1 = 0.7453 | 1.09 | 1.18 | 1.27 | 1.32
x1 = 0.7969 | 0.978 | 1.02 | 1.09 | 1.16
x1 = 0.8536 | 0.796 | 0.768 | 0.844 | 0.893
x1 = 0.903 | 0.582 | 0.586 | 0.602 | 0.607
x1 = 0.95 | 0.335 | 0.323 | 0.301 | 0.198

CCOC(=O)CC(=O)OCC [diethyl 1,3-propanedioate] + CC(C)O
excess molar enthalpy [kJ/mol]
Conditions | 288.2 K | 298.2 K | 313.2 K | 328.2 K
x1 = 0.0511 | 0.607 | 0.632 | 0.659 | 0.681
x1 = 0.1001 | 1.02 | 1.1 | 1.16 | 1.22
x1 = 0.1511 | 1.35 | 1.47 | 1.58 | 1.63
x1 = 0.2012 | 1.62 | 1.75 | 1.88 | 1.98
x1 = 0.2494 | 1.8 | 1.96 | 2.13 | 2.22
x1 = 0.3015 | 1.97 | 2.13 | 2.33 | 2.41
x1 = 0.3507 | 2.09 | 2.27 | 2.45 | 2.56
x1 = 0.3998 | 2.16 | 2.34 | 2.53 | 2.64
x1 = 0.4484 | 2.19 | 2.38 | 2.58 | 2.67
x1 = 0.5003 | 2.19 | 2.37 | 2.56 | 2.66
x1 = 0.5513 | 2.17 | 2.34 | 2.51 | 2.6
x1 = 0.6007 | 2.1 | 2.26 | 2.43 | 2.5
x1 = 0.6478 | 2.02 | 2.17 | 2.32 | 2.35
x1 = 0.6977 | 1.88 | 2.02 | 2.14 | 2.16
x1 = 0.7508 | 1.67 | 1.8 | 1.89 | 1.9
x1 = 0.8007 | 1.44 | 1.58 | 1.64 | 1.62
x1 = 0.8468 | 1.2 | 1.29 | 1.34 | 1.26
x1 = 0.9023 | 0.773 | 0.918 | 0.892 | 0.845
x1 = 0.9537 | 0.403 | 0.465 | 0.436 | 0.391

CCOC(=O)CC(=O)OCC [diethyl 1,3-propanedioate] + CCO
excess molar enthalpy [kJ/mol]
Conditions | 288.2 K | 298.2 K | 313.2 K | 328.2 K
x1 = 0.0501 | 0.397 | 0.423 | 0.476 | 0.497
x1 = 0.1004 | 0.702 | 0.775 | 0.859 | 0.929
x1 = 0.1491 | 0.974 | 1.03 | 1.17 | 1.27
x1 = 0.1995 | 1.18 | 1.26 | 1.41 | 1.53
x1 = 0.2507 | 1.33 | 1.45 | 1.62 | 1.76
x1 = 0.2985 | 1.45 | 1.59 | 1.78 | 1.93
x1 = 0.3517 | 1.56 | 1.7 | 1.9 | 2.05
x1 = 0.399 | 1.63 | 1.78 | 1.98 | 2.13
x1 = 0.4509 | 1.68 | 1.82 | 2.03 | 2.18
x1 = 0.4985 | 1.7 | 1.85 | 2.04 | 2.2
x1 = 0.5503 | 1.69 | 1.83 | 2.03 | 2.17
x1 = 0.6013 | 1.65 | 1.79 | 1.96 | 2.09
x1 = 0.6504 | 1.59 | 1.72 | 1.88 | 1.99
x1 = 0.6967 | 1.5 | 1.61 | 1.76 | 1.85
x1 = 0.7465 | 1.37 | 1.47 | 1.59 | 1.66
x1 = 0.8002 | 1.19 | 1.26 | 1.35 | 1.39
x1 = 0.8497 | 0.972 | 1.01 | 1.08 | 1.12
x1 = 0.9027 | 0.688 | 0.721 | 0.747 | 0.777
x1 = 0.9498 | 0.375 | 0.396 | 0.441 | 0.424
